Laboratory results: PubChem BioAssay (NCI)
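96-well plates; 48 h exposure; 5 concentrations. Endpoints by linear interpolation between flanking doses. Not reached: highest tested concentration assigned. TGI: concentration producing complete growth inhibition.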

Assays:
Assay in all cases: NCI tumour cell line growth inhibition, 48 h
[1] = test system: KM12 colon
[2] = test system: COLO 205 colon
[3] = test system: HL-60(TB) leukemia
[4] = test system: RXF 393 renal
[5] = test system: CAKI-1 renal
[6] = test system: EKVX NSCLC
[7] = test system: 786-0 renal
[8] = test system: MOLT-4 leukemia
[9] = test system: M19-MEL melanoma
[10] = test system: LXFL 529 NSCLC
[11] = test system: TK-10 renal
[12] = test system: NCI-H460 lung
[13] = test system: SK-MEL-2 melanoma
[14] = test system: SNB-19 CNS
[15] = test system: NCI-H522 lung
[16] = test system: M14 melanoma
[17] = test system: HOP-92 NSCLC
[18] = test system: ACHN renal
[19] = test system: SNB-75 CNS
[20] = test system: CCRF-CEM leukemia
[21] = test system: DMS 114 small cell lung
[22] = test system: UACC-257 melanoma
[23] = test system: A498 renal
[24] = test system: OVCAR-4 ovarian
[25] = test system: K-562 leukemia
[26] = test system: HOP-18 NSCLC
[27] = test system: LOX IMVI melanoma
[28] = test system: SN12C renal
[29] = test system: DMS 273 small cell lung
[30] = test system: HCT-116 colon
[31] = test system: SK-MEL-28 melanoma
[32] = test system: U251 CNS
[33] = test system: HCT-15 colon
[34] = test system: KM20L2 colon
[35] = test system: UO-31 renal
[36] = test system: RPMI-8226 leukemia
[37] = test system: SR leukemia
[38] = test system: OVCAR-5 ovarian
[39] = test system: A549 NSCLC
[40] = test system: HT29 colon
[41] = test system: SF-268 CNS
[42] = test system: XF 498 CNS
[43] = test system: DLD-1 colon
[44] = test system: SK-MEL-5 melanoma
[45] = test system: SW-620 colon
[46] = test system: SNB-78 CNS
[47] = test system: UACC-62 melanoma
[48] = test system: SK-OV-3 ovarian
[49] = test system: NCI-H226 lung
[50] = test system: HOP-62 NSCLC
[51] = test system: RXF-631 renal
[52] = test system: OVCAR-3 ovarian
[53] = test system: OVCAR-8 ovarian
[54] = test system: MALME-3M melanoma
[55] = test system: SF-295 CNS
[56] = test system: IGROV1 ovarian
[57] = test system: HCC-2998 colon
[58] = test system: MCF7 breast
[59] = test system: NCI/ADR-RES ovarian
[60] = test system: SF-539 CNS
[61] = test system: SN12K1 renal
[62] = test system: P388/ADR leukemia
[63] = test system: P388 leukemia
[64] = test system: NCI-H23 lung

NC(CNc1ccc(O)cc1)C(=O)O (stereo unspecified)
TGI [1]: > 100 µM
TGI [2]: > 100 µM
TGI [3]: 95.7 µM
TGI [4]: > 100 µM
TGI [5]: > 100 µM
TGI [6]: > 100 µM
TGI [7]: 30.2 µM
TGI [8]: > 100 µM
TGI [9]: 86.3 µM
TGI [10]: > 100 µM
TGI [11]: > 100 µM
TGI [12]: > 100 µM
TGI [13]: > 100 µM
TGI [14]: > 100 µM
TGI [15]: > 100 µM
TGI [16]: > 100 µM
TGI [17]: > 100 µM
TGI [18]: > 100 µM
TGI [19]: > 100 µM
TGI [20]: > 100 µM
TGI [21]: > 100 µM
TGI [22]: > 100 µM
TGI [23]: > 100 µM
TGI [24]: 31.7 µM
TGI [25]: > 100 µM
TGI [26]: > 100 µM
TGI [27]: > 100 µM
TGI [28]: > 100 µM
TGI [29]: > 100 µM
TGI [30]: > 100 µM
TGI [31]: > 100 µM
TGI [32]: > 100 µM
TGI [33]: > 100 µM
TGI [34]: > 100 µM
TGI [35]: > 100 µM
TGI [36]: > 100 µM
TGI [37]: > 100 µM
TGI [38]: > 100 µM
TGI [39]: > 100 µM
TGI [40]: > 100 µM
TGI [41]: > 100 µM
TGI [42]: 29.1 µM
TGI [43]: > 100 µM
TGI [44]: > 100 µM
TGI [45]: > 100 µM
TGI [46]: > 100 µM
TGI [47]: 49.4 µM
TGI [48]: > 100 µM
TGI [49]: > 100 µM
TGI [50]: > 100 µM
TGI [51]: > 100 µM
TGI [52]: > 100 µM
TGI [53]: > 100 µM
TGI [54]: > 100 µM
TGI [55]: > 100 µM

CCCN1C(=O)/C(=C(/O)C(=O)OCC)C(c2ccc(OC)c(OC)c2)C1=O (stereo unspecified)
TGI [56]: > 100 µM
TGI [1]: > 100 µM
TGI [2]: > 100 µM
TGI [3]: > 100 µM
TGI [4]: > 100 µM
TGI [5]: > 100 µM
TGI [6]: > 100 µM
TGI [8]: > 100 µM
TGI [9]: > 100 µM
TGI [57]: > 100 µM
TGI [12]: > 31.6 µM
TGI [13]: > 100 µM
TGI [58]: > 100 µM
TGI [14]: > 100 µM
TGI [15]: > 100 µM
TGI [59]: > 100 µM
TGI [17]: > 100 µM
TGI [19]: > 100 µM
TGI [20]: > 100 µM
TGI [21]: > 100 µM
TGI [22]: > 100 µM
TGI [23]: > 100 µM
TGI [24]: > 100 µM
TGI [60]: > 100 µM
TGI [25]: > 100 µM
TGI [26]: > 100 µM
TGI [27]: > 100 µM
TGI [28]: > 100 µM
TGI [29]: > 100 µM
TGI [30]: > 100 µM
TGI [31]: > 100 µM
TGI [32]: > 100 µM
TGI [33]: > 100 µM
TGI [34]: > 100 µM
TGI [35]: > 100 µM
TGI [61]: > 100 µM
TGI [62]: > 100 µM
TGI [36]: > 100 µM
TGI [38]: > 100 µM
TGI [39]: > 100 µM
TGI [40]: > 100 µM
TGI [41]: > 100 µM
TGI [42]: > 100 µM
TGI [43]: > 100 µM
TGI [44]: > 100 µM
TGI [45]: > 100 µM
TGI [46]: > 100 µM
TGI [47]: > 100 µM
TGI [63]: > 100 µM
TGI [48]: > 100 µM
TGI [49]: > 100 µM
TGI [50]: > 100 µM
TGI [52]: > 66.1 µM
TGI [64]: > 100 µM
TGI [53]: > 100 µM
TGI [54]: > 100 µM
TGI [55]: > 100 µM

COc1cc(/C=C2\CCc3ccccc3C2=O)cc(OC)c1OC
TGI [1]: 26.5 µM
TGI [2]: 30.7 µM
TGI [3]: 45.5 µM
TGI [4]: 29 µM
TGI [5]: 29.8 µM
TGI [6]: 34.3 µM
TGI [7]: 29.3 µM
TGI [8]: 40.7 µM
TGI [9]: 30 µM
TGI [10]: 29.5 µM
TGI [11]: 33.6 µM
TGI [57]: 32.2 µM
TGI [12]: 36.4 µM
TGI [13]: 29.8 µM
TGI [14]: 29.2 µM
TGI [15]: 28.2 µM
TGI [16]: 30 µM
TGI [17]: 24.5 µM
TGI [18]: 29.6 µM
TGI [19]: 53.6 µM
TGI [20]: 75.1 µM
TGI [21]: 25.1 µM
TGI [22]: 27.4 µM
TGI [24]: 60.8 µM
TGI [60]: 30.8 µM
TGI [25]: > 100 µM
TGI [26]: 26.9 µM
TGI [27]: 24.4 µM
TGI [28]: 35.6 µM
TGI [29]: 24.2 µM
TGI [30]: 28 µM
TGI [31]: 28.4 µM
TGI [32]: 29.7 µM
TGI [33]: 34.5 µM
TGI [34]: 31.1 µM
TGI [35]: 30.7 µM
TGI [36]: 31.3 µM
TGI [37]: > 100 µM
TGI [38]: 27.9 µM
TGI [39]: 50.1 µM
TGI [40]: 32.5 µM
TGI [41]: 30.3 µM
TGI [42]: 32.1 µM
TGI [43]: 28.3 µM
TGI [44]: 25.3 µM
TGI [45]: 31 µM
TGI [46]: 74.1 µM
TGI [47]: 27.5 µM
TGI [48]: 35.5 µM
TGI [49]: 36.8 µM
TGI [50]: 47.8 µM
TGI [51]: 38.6 µM
TGI [52]: 30.1 µM
TGI [64]: 29.2 µM
TGI [53]: 29.8 µM
TGI [54]: 32.9 µM
TGI [55]: 28.6 µM

N#Cc1nc(Nc2ccc([N+](=O)[O-])cc2)sc1N
TGI [56]: > 100 µM
TGI [1]: > 100 µM
TGI [2]: > 100 µM
TGI [3]: > 29.8 µM
TGI [5]: 56.7 µM
TGI [6]: > 100 µM
TGI [7]: > 100 µM
TGI [8]: > 82 µM
TGI [9]: > 100 µM
TGI [10]: > 100 µM
TGI [11]: > 77 µM
TGI [57]: 33.1 µM
TGI [12]: > 100 µM
TGI [13]: 53.2 µM
TGI [14]: > 95.1 µM
TGI [15]: 32.1 µM
TGI [16]: 66.8 µM
TGI [17]: 75 µM
TGI [18]: 50.9 µM
TGI [19]: > 100 µM
TGI [20]: > 100 µM
TGI [22]: 63.7 µM
TGI [23]: > 100 µM
TGI [24]: > 100 µM
TGI [60]: 18.7 µM
TGI [25]: > 100 µM
TGI [26]: > 100 µM
TGI [27]: 28.6 µM
TGI [28]: > 74.6 µM
TGI [29]: > 100 µM
TGI [30]: > 100 µM
TGI [31]: > 74.3 µM
TGI [32]: > 48.5 µM
TGI [33]: > 100 µM
TGI [34]: > 100 µM
TGI [35]: > 59.7 µM
TGI [36]: > 59.2 µM
TGI [37]: 6.85 µM
TGI [38]: > 100 µM
TGI [39]: > 100 µM
TGI [40]: > 100 µM
TGI [41]: > 100 µM
TGI [42]: > 100 µM
TGI [43]: > 100 µM
TGI [44]: 12.7 µM
TGI [45]: > 100 µM
TGI [46]: > 93 µM
TGI [47]: 50.8 µM
TGI [48]: 97.5 µM
TGI [49]: > 86.3 µM
TGI [50]: 75.8 µM
TGI [51]: > 75 µM
TGI [52]: > 69.4 µM
TGI [64]: 20.5 µM
TGI [53]: > 100 µM
TGI [54]: > 91.4 µM
TGI [55]: > 100 µM
